# Tests used:
# [1] = Half-life (T1/2) in solution at stated pH (chemical stability); format: physicochemical
# S. pneumoniae A-9585 = assay: Protective effect in the oral treatment of infected mice, S. pneumoniae A-9585; format: in vivo; conditions: Streptococcus pneumoniae, A9585, intraperitoneal challenge S. pneumoniae A-9585, 5 × 10^3 organisms, read-out: PD50/Treatment
# Experimental: (§1) In order to illustrate the potent antibacterial activity and significant oral bioavailability of the carbapenems of the present invention, Tables I, II and III show data for in vitro activities (MIC), oral in vivo activities (PD50) and blood levels after oral administration of the representative drugs (Cmax, t1/2 and AUC), respectively.
# (§2) The in vivo therapeutic efficacy of the representative compounds after oral administration to mice infected intraperitoneally with 0.5 ml of various bacterial suspension is shown in Table II. The values are given in PD50 (dose in mg/kg to give protection to 50% of the infected mice).
# [2] = Blood levels and half-life after oral administration in mice; format: in vivo; conditions: mouse, 50 mg/kg
# Experimental: as §1, with “respectively. Blood levels and the half-life of selected compounds of the present invention after oral administration at 50 mg/kg in mice is shown in Table III.” for “respectively.”
# P. mirabalis A-9900 = assay: Protective effect in the oral treatment of infected mice, P. mirabalis A-9900; format: in vivo; conditions: Mus musculus, intraperitoneal challenge P. mirabalis A-9900, 4 × 10^6 organisms, read-out: PD50/Treatment
# Experimental: as §1, §2
# E. coli A-15119 = assay: Protective effect in the oral treatment of infected mice, E. coli A-15119; format: in vivo; conditions: Escherichia coli, A15119, intraperitoneal challenge E. coli A-15119, 6 × 10^6 organisms, read-out: PD50/Treatment
# Experimental: as §1, §2
# Ps. aeur. A9843 = assay: Minimal Inhibitory Concentration, microtiter broth dilution, Ps. aeur. A9843; format: cell-based; conditions: Nutrient broth, approximately 500,000 CFU/ml, 35° C. overnight
# Description: as §1
# (§3) The determination was done by using microtiter broth dilution using Nutrient broth and final bacterial inoculum of approximately 500,000 CFU/ml from overnight cultures of the bacterium. The microtiter trays were then incubated at 35° C. overnight. The MIC's were determined in μg/ml as the lowest concentration of the drug which inhibits visible growth of the bacterium.
# Str. Pneu. A9525 = assay: Minimal Inhibitory Concentration, microtiter broth dilution, Str. Pneu. A9525; format: cell-based; conditions: Nutrient broth, approximately 500,000 CFU/ml, 35° C. overnight
# Description: as §1, §3
# E. coli A15119 = assay: Minimal Inhibitory Concentration, microtiter broth dilution, E. coli A15119; format: cell-based; conditions: Escherichia coli, Nutrient broth, approximately 500,000 CFU/ml, 35° C. overnight
# Description: as §1, §3
# Staph. aur. PenR = assay: Minimal Inhibitory Concentration, microtiter broth dilution, Staph. aur. PenR; format: cell-based; conditions: Nutrient broth, approximately 500,000 CFU/ml, 35° C. overnight
# Description: as §1, §3
smiles,measurement,setting,value
"CSC(C)SC1=C(C(=O)O)N2C(=O)[C@H]([C@@H](C)O)[C@H]2[C@H]1C (single isomer, unassigned) [Iv-A]",half-life,"[1]; pH 2, 37° C.",0.333 h
"CSC(C)SC1=C(C(=O)O)N2C(=O)[C@H]([C@@H](C)O)[C@H]2[C@H]1C (single isomer, unassigned) [Iv-B]",T1/2,"[1]; pH 2, 37° C.",0.333 h
same,half-life,"[1]; pH 7.4, 37° C.",56 h
"CSCSC1=C(C(=O)O)N2C(=O)[C@H]([C@@H](C)O)[C@H]2C1 [Ia, Potassium or Sodium (5R,6S)-6-[1'(R)-hydroxyethyl]-3-[[(methylthio)methyl]thio]-7-oxo-1-azabicyclo[3.2.0]hept-2-ene-2-carboxylate]",half-life,[1]; pH 7.4,20 h
CSCSC1=C(C(=O)O)N2C(=O)[C@H]([C@@H](C)O)[C@H]2[C@H]1C [Ib''],ED50,S. pneumoniae A-9585,1.4 mg/kg
same,AUC,[2],21000 ng·h/mL
same,Cmax,[2],27000 ng/mL
same,half-life,[2],0.417 h
same,ED50,P. mirabalis A-9900,3.6 mg/kg
same,ED50,E. coli A-15119,3.5 mg/kg
same,half-life,[1]; pH 2,0.313 h
same,half-life,[1]; pH 7.4,75 h
"C[C@@H](O)[C@H]1C(=O)N2C(C(=O)O)=C(SCSc3ccc(C(=O)NN)cc3)[C@H](C)[C@H]12 [Ibb, (4R,5S,6S)-3-[[[[(p-hydrazinocarbonyl)phenyl]thio]methyl]thio]-6-[1'(R)-hydroxyethyl]-4-methyl-7-oxo-1-azabicyclo[3.2.0]hept-2-ene-2-carboxylate]",ED50,S. pneumoniae A-9585,16.5 mg/kg
same,Cmax,[2],< 1000 ng/mL
"C[C@@H](O)[C@H]1C(=O)N2C(C(=O)O)=C(SCSc3ccncc3)C[C@H]12 [Ic, Potassium or sodium (5R,6S)-6-[1'(R)-hydroxyethyl]-3-[[[(pyridin-4-yl)thio]methyl]thio]-7-oxo-1-azabicyclo[3.2.0]hept-2-ene-2-carboxylate]",half-life,[1]; pH 7.4,15 h
"Cc1nnc(SCSC2=C(C(=O)O)N3C(=O)[C@H]([C@@H](C)O)[C@H]3[C@H]2C)o1 [Icc, (4R,5S,6S)-6-[1'(R)-hydroxyethyl]-4-methyl-3-[[[(5-methyl-1,3,4-oxadiazol-2-yl)thio]methyl]thio]-7-oxo-1-azabicyclo-[3.2.0]hept-2-ene-2-carboxylate]",ED50,S. pneumoniae A-9585,0.2 mg/kg
same,AUC,[2],11000 ng·h/mL
same,Cmax,[2],20000 ng/mL
same,half-life,[2],0.233 h
same,MIC,Ps. aeur. A9843,32 µg/mL
same,MIC,Str. Pneu. A9525,0.001 µg/mL
same,MIC,E. coli A15119,0.004 µg/mL
same,ED50,E. coli A-15119,1.4 mg/kg
same,MIC,Staph. aur. PenR,0.03 µg/mL
"C[C@@H](O)[C@H]1C(=O)N2C(C(=O)O)=C(SCSc3ccccc3)[C@H](C)[C@H]12 [Id, (4R,5S,6S)-6-[1'(R)-hydroxyethyl]-4-methyl-3-[[(phenylthio)methyl]thio]-7-oxo-1-azabicyclo[3.2.0]hept-2-ene-2-carboxylate]",half-life,[1]; pH 2,0.313 h
same,half-life,[1]; pH 7.4,100 h
"Cc1nnc(SCSC2=C(C(=O)O)N3C(=O)[C@H]([C@@H](C)O)[C@H]3[C@H]2C)s1 [Idd, (4R,5S,6S)-6-[1'(R)-hydroxyethyl]-4-methyl-3-[[[(5-methyl-1,3,4-thiadiazol-2-yl)thio]methyl]thio]-7-oxo-1-azabicyclo[3.2.0]hept-2-ene-2-carboxylate]",ED50,S. pneumoniae A-9585,0.3 mg/kg
same,AUC,[2],10000 ng·h/mL
same,Cmax,[2],12000 ng/mL
same,half-life,[2],0.4 h
same,MIC,Ps. aeur. A9843,32 µg/mL
same,MIC,Str. Pneu. A9525,0.001 µg/mL
same,MIC,E. coli A15119,0.008 µg/mL
same,ED50,E. coli A-15119,3.85 mg/kg
same,MIC,Staph. aur. PenR,0.016 µg/mL
"C[C@@H](O)[C@H]1C(=O)N2C(C(=O)O)=C(SCSc3ccccn3)C[C@H]12 [Ie, Sodium (5R,6S)-6-[1'(R)-1-hydroxyethyl]-3-[[[(pyridin-2-yl)thio]methyl]thio]-7-oxo-1-azabicyclo[3.2.0]hept-2-ene-2-carboxylate]",half-life,[1]; pH 7.4,19 h
"C[C@@H](O)[C@H]1C(=O)N2C(C(=O)O)=C(SCSc3ccccn3)[C@H](C)[C@H]12 [If, Sodium (4R,5S,6S)-6-[1'(R)-hydroxyethyl]-4-methyl-3-[[[(pyridin-2-yl)thio]methyl]thio]-7-oxo-1-azabicyclo[3.2.0]hept-2-ene-2-carboxylate]",half-life,[1]; pH 2,0.6 h
same,half-life,[1]; pH 7.4,79 h
"C[C@@H](O)[C@H]1C(=O)N2C(C(=O)O)=C(SCSc3ccncc3)[C@H](C)[C@H]12 [Ig, (4R,5S,6S)-6-[1'(R)-hydroxyethyl]-4-methyl-3-[[[(pyridin-4-yl)thio]methyl]thio]-7-oxo-1-azabicyclo[3.2.0]hept-2-ene-2-carboxylate]",half-life,[1]; pH 2,0.567 h
"C[C@@H](O)[C@H]1C(=O)N2C(C(=O)O)=C(SCSc3cccnc3)C[C@H]12 [Ih, Sodium (5R,6S)-6-[1'(R)-hydroxyethyl]-3-[[[(pyridin-3-yl)thio]methyl]thio]-7-oxo-1-azabicyclo[3.2.0]hept-2-ene-2-carboxylate]",half-life,[1]; pH 2,0.0333 h
same,half-life,[1]; pH 7.4,22 h
"C[C@@H](O)[C@H]1C(=O)N2C(C(=O)O)=C(SCSc3cccnc3)[C@H](C)[C@H]12 [Ii, (4R,5S,6S)-6-[1'(R)-hydroxyethyl]-4-methyl-3-[[[(pyridin-3-yl)thio]methyl]thio]-7-oxo-1-azabicyclo[3.2.0]hept-2-ene-2-carboxylate]",half-life,[1]; pH 2,0.583 h
same,half-life,[1]; pH 7.4,74 h
"C[C@@H](O)[C@H]1C(=O)N2C(C(=O)O)=C(SCSc3ccc(Cl)cc3)C[C@H]12 [Ij, (5R,6S)-6-[1'(R)-hydroxyethyl]-3-[[[(p-chlorophenyl)thio]methyl]thio]-7-oxo-1-azabicyclo[3.2.0]hept-2-ene-2-carboxylate]",half-life,[1]; pH 7.4,26 h
"C[C@@H](O)[C@H]1C(=O)N2C(C(=O)O)=C(SCSc3ccc(Cl)cc3)[C@H](C)[C@H]12 [Ik, (4R,5S,6S)-6-[1' (R)-hydroxyethyl]-4-methyl-3-[[[(p-chlorophenyl)thio]methyl]thio]-7-oxo-1-azabicyclo[3.2.0]hept-2-ene-2-carboxylate]",AUC,[2],34000 ng·h/mL
same,Cmax,[2],40000 ng/mL
same,half-life,[2],0.55 h
same,MIC,Ps. aeur. A9843,63 µg/mL
same,MIC,Str. Pneu. A9525,0.004 µg/mL
same,MIC,E. coli A15119,2 µg/mL
same,half-life,[1]; pH 7.4,97 h
same,MIC,Staph. aur. PenR,0.03 µg/mL
C[C@@H](O)[C@H]1C(=O)N2C(C(=O)O)=C(SC[S+](C)[O-])[C@H](C)[C@H]12 (some centres unmarked) [Im],half-life,[1]; pH 7.4,46 h
"C[C@@H](O)[C@H]1C(=O)N2C(C(=O)O)=C(SC[S+]([O-])c3ccc(Cl)cc3)[C@H](C)[C@H]12 (stereo partly drawn) [In, (4R,5S,6S)-3-[[[(p-chlorophenyl)sulfinyl]methyl]thio]-6-[1'(R)-hydroxyethyl]-4-methyl-7-oxo-1-azabicyclo[3.2.0]hept-2-ene-2-carboxylate]",half-life,"[1]; pH 7.4, 37° C.",106 h
"C[C@@H](O)[C@H]1C(=O)N2C(C(=O)O)=C(SCSCc3cccnc3)[C@H](C)[C@H]12 [Io, (4R,5S,6S)-6-[1'(R)-hydroxyethyl]-4-methyl-3-[[[[(pyridin-3-yl)methyl]thio]methyl]thio]-7-oxo-1-azabicyclo-[3.2.0]hept-2-ene-2-carboxylate]",half-life,"[1]; pH 7.4, 37° C.",77 h
"C[C@@H](O)[C@H]1C(=O)N2C(C(=O)O)=C(SC[S+]([O-])Cc3cccnc3)[C@H](C)[C@H]12 (stereo partly drawn) [Ip, (4R,5S,6S)-6-[1'(R)-hydroxyethyl]-4-methyl-3-[[[[(pyridin-3-yl)methyl]sulfinyl]methyl]thio]-7-oxo-1-azabicyclo[3.2.0]hept-2-ene-2-carboxylate]",half-life,"[1]; pH 7.4, 37° C.",43 h
"C[C@@H](O)[C@H]1C(=O)N2C(C(=O)O)=C(SCSc3ccc(Cl)c(Cl)c3)[C@H](C)[C@H]12 [Iq, (4R,5S,6S)-3-[[[(3,4-dichlorophenyl)thio]methyl]thio]-6-[1'(R)-hydroxyethyl]-4-methyl-7-oxo-1-azabicyclo-[3.2.0]hept-2-ene-2-carboxylate]",AUC,[2],24000 ng·h/mL
same,Cmax,[2],33000 ng/mL
same,half-life,[2],0.417 h
same,ED50,E. coli A-15119,25 mg/kg
same,half-life,"[1]; pH 7.4, 37° C.",99 h
"C[C@@H](O)[C@H]1C(=O)N2C(C(=O)O)=C(SCSc3c(F)c(F)c(F)c(F)c3F)[C@H](C)[C@H]12 [Ir, Sodium (4R,5S,6S)-6-[1'(R)-hydroxyethyl]-4-methyl-3-[[[(2,3,4,5,6-pentafluorophenyl)thio]methyl]thio]-7-oxo-1-azabicyclo[3.2.0]hept-2-ene-2-carboxylate]",half-life,"[1]; pH 7.4, 37° C.",41 h
